# In article PMC11284788, “NN1213 – A Potent, Long-Acting, and Selective Analog of Human Amylin” (Journal of Medicinal Chemistry, 2024):
# Where two headings read alike, the source gives them in different places. Numbered stars: 1 amine (or outer) side, 2 acyl side, 3 side chain; on linkers, the order of the positions; unused ones are H or OH. Bridge positions count the residues as written; N and C are the ends. Side chains are listed from the residue outwards. Peptide text beside a SMILES is read from it. * marks the point of attachment. C20 diacid = O=C(O)CCCCCCCCCCCCCCCCCCC(=O)*; γGlu = O=C(O)[C@H](CCC(=O)[*:2])N[*:1]
# Experiments:
# hCTR = molecular target: T1, hCTR (Homo sapiens, UniProt P30988); experiment: cAMP-responsive element luciferase reporter assay, human CTR; assay type: cell-based; details: luciferase (human receptor assay)
# T1 sequence (P30988 25-474): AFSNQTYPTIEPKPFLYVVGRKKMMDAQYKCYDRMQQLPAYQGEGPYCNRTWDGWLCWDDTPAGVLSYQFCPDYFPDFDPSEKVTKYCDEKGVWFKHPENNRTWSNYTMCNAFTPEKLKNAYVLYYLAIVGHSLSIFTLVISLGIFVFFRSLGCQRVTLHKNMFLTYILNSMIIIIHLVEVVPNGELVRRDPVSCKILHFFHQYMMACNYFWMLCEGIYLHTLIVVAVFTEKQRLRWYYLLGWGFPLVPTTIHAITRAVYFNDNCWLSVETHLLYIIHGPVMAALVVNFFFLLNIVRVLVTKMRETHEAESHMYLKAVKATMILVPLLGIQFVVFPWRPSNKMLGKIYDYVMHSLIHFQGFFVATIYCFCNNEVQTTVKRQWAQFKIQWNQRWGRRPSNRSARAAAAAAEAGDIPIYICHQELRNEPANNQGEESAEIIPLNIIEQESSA
# hAMY3R = molecular target: T2, hAMY3R (Homo sapiens, UniProt O60896+P30988); experiment: cAMP-responsive element luciferase reporter assay, human AMY3R; assay type: cell-based; set-up: expressed in transfected cells; details: for EC50: luciferase (human receptor assay); for ratio hCTR/hAMY3R: ratio of luciferase EC50 values
# T2 sequence (P30988 25-474): T1 sequence (P30988 25-474)
# T2 sequence (O60896 24-148 partner): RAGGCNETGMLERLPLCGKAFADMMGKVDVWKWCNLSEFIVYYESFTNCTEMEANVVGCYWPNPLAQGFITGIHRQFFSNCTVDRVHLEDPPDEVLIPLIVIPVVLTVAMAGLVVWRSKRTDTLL
# [1] = ThT assay: fibril formation propensity and peptide recovery; assay type: physicochemical; details: for ThT, pH 7.5 lag-time: 250 μM peptide, 10 mM HEPES pH 7.5, 1 μM ThT, 37 °C, 960 rpm, 45 h, lowest of four replicas, average of experiments; for recovery: pH 7.5, residual dissolved peptide after 45 h of shaking, centrifugation and 0.22 μm filtration, HPLC, relative to amount before stress
# Description: The stability properties of the individual amylin analogs were assessed with respect to their propensity toward fibril formation, expressed as the time until fibril formation (measured as Lag time) and loss of dissolved peptide (assessed as Peptide Recovery). […] Samples were prepared as described previously (using the same methodology and materials) for a novel amylin-based analog candidate compound.[7]
# Briefly, each compound was dissolved in 10 mM of glycylglycine buffer (pH 4.0) or HEPES buffer (pH 7.5) to a concentration of 250 μM, followed by ThT stock solution to a final concentration of 1 μM. Each solution was aliquoted into a microtiter plate (200 μL/well) sealed with a transparent adhesive sheet. Mechanical stress was applied at 37 °C incubation (960 rpm, 1 mm amplitude) with 20 min fluorescence reading intervals for 45 h (filters: excitation 444 nm; emission 485 nm). Each peptide was tested in experiments consisting of four replicas (e.g., four wells on the same plate), and the lag time of each replica was determined by visual inspection of the fluorescence-versus-time plot. For wells where no fibril formation could be detected, the lag time was set longer than the test period (>45 h). The lag time of the peptide was set to the lowest lag time of the four replicates (conservative estimate). Some of the peptides were tested in more than one experiment, and the lag time results given in Tables 6 and 9 represent the average of these experiments. The ThT time course data given in Supporting Information represent the average and SEM of each experiment.[40] After analysis, wells representing individual replicas were pooled, and the residual soluble peptide was isolated using centrifugation (20,000 g/30 min at room temperature) followed by […] filtration. The amount of residual dissolved peptide was determined using an HPLC with a flow rate of 2 mL/min at 30 °C and 215/276 nm detection. A gradient combining eluent A (7.7% w/w acetonitrile, 200 mM Na2SO4, 20 mM NaH2PO4, 20 mM Na2HPO4, pH 7.2) and eluent B (65.5% w/w acetonitrile) was applied. The amount of residual dissolved peptide was reported on a relative scale (Peptide Recovery) to the amount of dissolved peptide prior to mechanical stress.
# [2] = HMWP content by size-exclusion chromatography; assay type: physicochemical; details: analogs 1–9 (pH 7.5 series); covalent dimers and polymers prior to fibril formation testing, SEC, % of total absorbance area at 215 nm
# Description: The stability properties of the individual amylin analogs were assessed with respect to their propensity toward amyloid fibril formation. The relative amount of covalent dimers and polymers (HMWP) present prior to fibril formation testing was measured as a control for the potential inhibitory effect of HMWP on fibril formation propensity as reported elsewhere.[39]
# Elution was performed under isocratic conditions with the following mobile phase prepared in Milli-Q water (Millipore A/S): 0.5 M NaCl, 10 mM sodium dihydrogen monohydrate, 5 mM ortho-phosphoric acid, 50% (v/v) 2-propanol. The amount of HMWP was determined as the absorbance area of the corresponding peaks given in percentage of the total absorbance area. The molar extinction coefficients of the molecules eluting in the HMWP fraction and the main peak was assumed to be equal.
# [3] = Solubility versus pH profile
# [4] = Tables S12 and S14, read-out: hCTR pEC50 (converted)
# [5] = BHK cells stably expressing hCTR and CRE-luciferase, 3 h, 37 °C, 10% FBS, read-out: hCTR EC50
# [6] = Tables S12 and S14, read-out: hAMY3R pEC50 (converted)
# [7] = BHK cells stably expressing hCTR+RAMP3 and CRE-luciferase, 3 h, 37 °C, 10% FBS, read-out: hAMY3R EC50
Structure (SMILES),EC50 (hCTR; [4]) [nM],EC50 (hCTR; [5]) [nM],EC50 (hAMY3R; [6]) [nM],EC50 (hAMY3R; [7]) [nM],ratio hCTR/hAMY3R (hAMY3R),"ThT, pH 7.5 lag-time [1] [h]",recovery [1] [%],HMWP [2] [%],"solubility kinetic ([3]; bis-tris-propane buffer, pH 6, aqueous buffer) [µM]","solubility kinetic ([3]; bis-tris-propane buffer, pH 6.5, aqueous buffer) [µM]","solubility kinetic ([3]; bis-tris-propane buffer, pH 7, aqueous buffer) [µM]","solubility kinetic ([3]; bis-tris-propane buffer, pH 7.5, aqueous buffer) [µM]","solubility kinetic ([3]; bis-tris-propane buffer, pH 8, aqueous buffer) [µM]","solubility kinetic ([3]; lactate buffer, pH 4, aqueous buffer) [µM]","solubility kinetic ([3]; lactate buffer, pH 5, aqueous buffer) [µM]"
CC[C@H](C)[C@H](NC(=O)[C@@H]1CCCN1C(=O)CNC(=O)[C@H](Cc1ccccc1)NC(=O)[C@H](CC(N)=O)NC(=O)[C@H](CCC(=O)O)NC(=O)[C@H](CO)NC(=O)[C@H](CO)NC(=O)[C@H](Cc1c[nH]cn1)NC(=O)[C@H](CCCNC(=N)N)NC(=O)[C@H](CC(C)C)NC(=O)[C@H](Cc1ccccc1)NC(=O)[C@H](CC(=O)O)NC(=O)[C@H](C)NC(=O)[C@H](CC(C)C)NC(=O)[C@H](CCCNC(=N)N)NC(=O)[C@H](CCC(N)=O)NC(=O)[C@@H](NC(=O)[C@H](C)NC(=O)[C@@H]1CSSC[C@H](NC(=O)[C@@H](N)CCCCNC(=O)CC[C@H](NC(=O)CC[C@H](NC(=O)CCCCCCCCCCCCCCCCCCC(=O)O)C(=O)O)C(=O)O)C(=O)N[C@@H](CC(N)=O)C(=O)N[C@@H]([C@@H](C)O)C(=O)N[C@@H](C)C(=O)N[C@@H]([C@@H](C)O)C(=O)N1)[C@@H](C)O)C(=O)N[C@@H](CC(C)C)C(=O)N[C@@H](CO)C(=O)N[C@@H](CO)C(=O)N[C@H](C(=O)N1CCC[C@H]1C(=O)N[C@H](C(=O)NCC(=O)N[C@@H](CO)C(=O)N[C@@H](CC(=O)O)C(=O)N[C@H](C(=O)N[C@@H](Cc1ccc(O)cc1)C(N)=O)[C@@H](C)O)C(C)C)[C@@H](C)O [Peptide 9] (H-K([γGlu-γGlu-C20 diacid])CNTATCATQRLADFLRHSSENFGPILSSTPVGSDTY-NH2; disulfide 2-7),8.32,8.31,1.07,1.06,7.8,>45,100,6,,,,,,,
CC(C)C[C@H](NC(=O)[C@H](CCCNC(=N)N)NC(=O)[C@H](CCC(N)=O)NC(=O)[C@@H](NC(=O)[C@H](C)NC(=O)[C@@H]1CSSC[C@H](NC(=O)[C@@H](N)CCCCNC(=O)CC[C@H](NC(=O)CCCCCCCCCCCCCCCCCCC(=O)O)C(=O)O)C(=O)N[C@@H](CC(N)=O)C(=O)N[C@@H]([C@@H](C)O)C(=O)N[C@@H](C)C(=O)N[C@@H]([C@@H](C)O)C(=O)N1)[C@@H](C)O)C(=O)N[C@@H](C)C(=O)N[C@@H](CC(=O)O)C(=O)N[C@@H](Cc1ccccc1)C(=O)N[C@@H](CC(C)C)C(=O)N[C@@H](CCCNC(=N)N)C(=O)N[C@@H](Cc1c[nH]cn1)C(=O)N[C@@H](CO)C(=O)N[C@@H](CO)C(=O)N[C@@H](CCC(N)=O)C(=O)N[C@@H](CC(N)=O)C(=O)N[C@@H](Cc1ccccc1)C(=O)NCC(=O)N[C@@H](C)C(=O)N1CCC[C@H]1C(=O)N[C@@H](CC(C)C)C(=O)N[C@@H](CO)C(=O)N[C@@H](CO)C(=O)N[C@H](C(=O)N[C@@H](CC(N)=O)C(=O)N[C@H](C(=O)NCC(=O)N[C@@H](CO)C(=O)N1CCC[C@H]1C(=O)N[C@H](C(=O)N[C@@H](Cc1ccc(O)cc1)C(N)=O)[C@@H](C)O)C(C)C)[C@@H](C)O [Peptide 2] (H-K([γGlu-C20 diacid])CNTATCATQRLADFLRHSSQNFGAPLSSTNVGSPTY-NH2; disulfide 2-7),1.38,1.37,1.55,1.54,0.9,0,0,,≥ 200,75,7,7,15,≥ 200,≥ 200
CC[C@H](C)[C@H](NC(=O)[C@H](C)NC(=O)CNC(=O)[C@H](Cc1ccccc1)NC(=O)[C@@H]1CCCN1C(=O)[C@H](CC(N)=O)NC(=O)[C@H](CO)NC(=O)[C@H](CO)NC(=O)[C@H](Cc1c[nH]cn1)NC(=O)[C@H](CCCNC(=N)N)NC(=O)[C@H](CC(C)C)NC(=O)[C@H](Cc1ccccc1)NC(=O)[C@H](CC(=O)O)NC(=O)[C@H](C)NC(=O)[C@H](CC(C)C)NC(=O)[C@H](CCCNC(=N)N)NC(=O)[C@H](CCC(N)=O)NC(=O)[C@@H](NC(=O)[C@H](C)NC(=O)[C@@H]1CSSC[C@H](NC(=O)[C@@H](N)CCCCNC(=O)CC[C@H](NC(=O)CC[C@H](NC(=O)CCCCCCCCCCCCCCCCCCC(=O)O)C(=O)O)C(=O)O)C(=O)N[C@@H](CC(N)=O)C(=O)N[C@@H]([C@@H](C)O)C(=O)N[C@@H](C)C(=O)N[C@@H]([C@@H](C)O)C(=O)N1)[C@@H](C)O)C(=O)N1CCC[C@H]1C(=O)N[C@@H](CO)C(=O)N[C@@H](CO)C(=O)N[C@H](C(=O)N[C@@H](CC(N)=O)C(=O)N[C@H](C(=O)NCC(=O)N[C@@H](CO)C(=O)N[C@@H](CC(=O)O)C(=O)N[C@H](C(=O)N[C@@H](Cc1ccc(O)cc1)C(N)=O)[C@@H](C)O)C(C)C)[C@@H](C)O [Peptide 8] (H-K([γGlu-γGlu-C20 diacid])CNTATCATQRLADFLRHSSNPFGAIPSSTNVGSDTY-NH2; disulfide 2-7),2.19,2.19,0.389,0.39,5.6,>45,100,2.5,,,,,,,
